We go through 39 compounds from US6844343B1, “N-substituted 4-aminopteridines, synthesis and use thereof as pharmaceutical agent” (Vasopharm Biotech GmbH, priority 1999, dated 2005).

The test system of the first assay is purified NO synthase from pig cerebellum or from pig liver. In words: Activity assay of purified NOS (3H-L-arginine to 3H-L-citrulline conversion). In kind it is biochemical. The conditions noted are these: substance 100 μM, in the presence of 2 μM tetrahydrobiopterin, 15 min at 37° C. The method, then:
The inhibition of the activity of purified nitric oxide synthase (NOS) by compounds of the general formula I can be determined as follows.
In this activity assay the L-citrulline which is a coproduct of the formation of NO by purified NOS is quantitatively measured. ^3H-radiolabeled L-arginine is employed as substrate of the enzyme reaction and is converted into ^3H-L-citrulline and NO. After completion of the enzyme incubation, generated L-citrulline is removed from unused L-arginine by ion exchange chromatography from the reaction mixture; the ^3H activity measured by liquid scintillation then is corresponds to the amount of L-citrulline, which is a direct measure of the activity of NOS.
The basic medium for carrying out the enzyme reaction is TE buffer (triethanolamine, EDTA, pH 7.0).
The final volume of each incubation is 100 μl. The reaction mixture is obtained by mixing the following 6 components on ice: • 1. “REA-Mix” (pH 7.0) which contains triethanolamine, calcium chloride, magnesium chloride, EDTA, L-arginine, calmodulin and flavin adenine dinucleotide (FAD); • 2. freshly prepared stock solution of β-nicotinamide adenine dinucleotide phosphate, reduced form (NADPH); • 3. (6R)-5,6,7,8-tetrahydro-L-biopterin dihydro-chloride stock solution (BH4) or —for experiments without BH4-instead TE buffer; • 4. purified NO synthase from pig cerebellum or from pig liver; • 5.
After mixing of the components on ice, the reaction mixture was immediately incubated in a water bath at 37° C. for 15 minutes. […] After this incubation time, the reaction was stopped by addition of 900 μl of ice-cold “stop buffer” (20 mM sodium acetate, 2 mM EDTA, pH 5.5), and the mixture (total volume now 1.0 ml) was placed on ice. To remove the unreacted ^3H-L-arginine, the mixture was loaded onto an ion exchange column with 0.8 ml of Dowex AG 50 WX-8 (100-200 mesh) which has previously been washed and equilibrated with 2 ml of stop buffer. After loading of the sample, the column was eluted twice with 1 ml of water each time. The flow-through of the sample and the eluate were collected in scintillation vessels and […] (total volume 3 ml). 9 ml of scintillator solution were added to the 3 ml of aqueous measurement solution, and the homogeneous mixture was measured in a Tricarb 2500 TR (Packard) liquid scintillation counter for 1 minute for each sample. […] Each substance was tested for an antagonistic effect in a concentration of 100 μM in the presence of 2 μM tetrahydrobiopterin, and for an agonistic effect on NOS in the absence of tetrahydrobiopterin.
All incubations were carried out on triplicates. Each experiment was repeated three times with different enzyme preparations.
As to `Nc1nc(N2CCCCC2)c2nc(-c3ccc(Cl)cc3)cnc2n1.O.O` [Example 32, 2-amino-4-(piperidin-1-yl)-6-(4-chlorophenyl)-pteridine dihydrate], the “Remaining activity (% of Vmax)” value is listed as 3 ± 1 % of Vmax.
“2-amino-4-(morpholin-4-yl)-6-(4-methoxyphenyl)-5,6,7,8-tetrahydropteridine hydrochloride hemi-hydrate [Example 40]”: the “Remaining activity (% of Vmax)” value is given as 66 ± 14 % of Vmax.
For the compound `COc1ccc(-c2cnc3nc(N)nc(N4CCN(C)CC4)c3n2)cc1OC.O.O` [Example 38, 2-amino-4-(4-methylpiperazin-1-yl)-6-(3,4-di-methoxyphenyl)pteridine dihydrate], the “Remaining activity (% of Vmax)” value is listed as 99 ± 16 % of Vmax.
`CCN(CC)c1nc(N)nc2ncc(-c3ccc(Cl)cc3)nc12.O.O` [Example 16, 2-amino-4-(diethylamino)-6-(4-chlorophenyl)-pteridine dihydrate]: the “Remaining activity (% of Vmax)” value is 42 ± 10 % of Vmax.
Turning to `CCN(CC)c1nc(N)nc2ncc(-c3ccc(OC)cc3)nc12.O` [Example 17, 2-amino-4-(diethylamino)-6-(4-methoxyphenyl)-pteridine hydrate], the “Remaining activity (% of Vmax)” value was 2 ± 0.1 % of Vmax.
With `Cl.Nc1nc(N2CCOCC2)c2nc(-c3ccc(Cl)cc3)cnc2n1.O` [Example 28, 2-amino-4-(morpholin-4-yl)-6-(4-chlorophenyl)-pteridine hydrochloride hydrate], the “Remaining activity (% of Vmax)” value is 3 ± 1.5 % of Vmax.
On the same count and under the same terms, the value for `Nc1nc(N(Cc2ccccc2)Cc2ccccc2)c2nc(-c3ccccc3)cnc2n1.O.O` [Example 19, 2-amino-4-(dibenzylamino)-6-phenylpteridine dihydrate] was 0 ± 0.05 % of Vmax; that for `Cc1ccc(-c2cnc3nc(N)nc(N(C)C)c3n2)cc1` [Example 12, 2-amino-4-(dimethylamino)-6-(4-methylphenyl)-pteridine] was 15 ± 7 % of Vmax.
Take `COc1ccc(C2CNc3nc(N)nc(N4CCOCC4)c3N2)cc1OC.Cl.O` (stereo not drawn) [Example 41, 2-amino-4-(morpholin-4-yl)-6-(3,4-dimethoxy-phenyl)-5,6,7,8-tetrahydropteridine hydrochloride hydrate]: the “Remaining activity (% of Vmax)” value is 68 ± 11 % of Vmax.
In the case of “2-amino-4-(4-methylpiperazin-1-yl)-6-(4-methoxy-phenyl)pteridine hemihydrate [Example 37]”, the “Remaining activity (% of Vmax)” value was 84 ± 5 % of Vmax.
For the compound `CCCN(CCC)c1nc(N)nc2ncc(-c3ccccc3)nc12.O.O.O` [Example 23, 2-amino-4-(di-n-propylamino)-6-phenylpteridine trihydrate], the “Remaining activity (% of Vmax)” value is on record as 77 ± 16 % of Vmax.
For “2-amino-4-(4-methylpiperazin-1-yl)-6-(4-chloro-phenyl)pteridine hemihydrate [Example 36]”, the “Remaining activity (% of Vmax)” value is reported as 64 ± 9 % of Vmax.
`Nc1nc(N2CCOCC2)c2nc(-c3ccccc3)cnc2n1.O` [Example 27, 2-amino-4-(morpholin-4-yl)-6-phenylpteridine hydrate]: the “Remaining activity (% of Vmax)” value is given as 41 ± 8 % of Vmax.
As for `CCN(CC)c1nc(N)nc2ncc(-c3ccc(OC)c(OC)c3)nc12.O` [Example 18, 2-amino-4-(diethylamino)-6-(3,4-dimethoxyphenyl)-pteridine hydrate], the “Remaining activity (% of Vmax)” value was 23 ± 4 % of Vmax.
`COc1ccc(-c2cnc3nc(N)nc(N(C)C)c3n2)cc1` [Example 13, 2-amino-4-(dimethylamino)-6-(4-methoxyphenyl)-pteridine]: the “Remaining activity (% of Vmax)” value was 13 ± 4 % of Vmax.
Still for that read-out and setting: the value for `COc1ccc(-c2cnc3nc(N)nc(N4CCOCC4)c3n2)cc1OC.O.O.O` [Example 30, 2-amino-4-(morpholin-4-yl)-6-(3,4-dimethoxy-phenyl)pteridine trihydrate] was 5 ± 3 % of Vmax; that for `CCCN(CCC)c1nc(N)nc2ncc(-c3ccc(Cl)cc3)nc12.O.O.O` [Example 24, 2-amino-4-(di-n-propylamino)-6-(4-chlorophenyl)-pteridine trihydrate] was 7 ± 4 % of Vmax; that for `COc1ccc(-c2cnc3nc(N)nc(N4CCCC4)c3n2)cc1.O.O` [Example 39, 2-amino-4-(pyrrolidin-1-yl)-6-(4-methoxyphenyl)-pteridine dihydrate] was 30 ± 5 % of Vmax.
`CCCN(CCC)c1nc(N)nc2ncc(-c3ccc(OC)cc3)nc12.O` [Example 25, 2-amino-4-(di-n-propylamino)-6-(4-methoxyphenyl)-pteridine hydrate]: the “Remaining activity (% of Vmax)” value is 25 ± 12 % of Vmax.
Turning to `CCCN(CCC)c1nc(N)nc2ncc(-c3ccc(OC)c(OC)c3)nc12.O` [Example 26, 2-amino-4-(di-n-propylamino)-6-(3,4-dimethoxy-phenyl)pteridine hydrate], the “Remaining activity (% of Vmax)” value is listed as 0 % of Vmax.
For the compound `Cl.Cl.Cl.Nc1nc2c(c(N3CCCCC3)n1)NC(c1ccc(Cl)cc1)CN2.O` (stereo not drawn) [Example 43, 2-amino-4-(piperidin-1-yl)-6-(4-chlorophenyl)-5,6,7,8-tetrahydropteridine trihydrochloride hydrate], the “Remaining activity (% of Vmax)” value is recorded as 0 % of Vmax.
As for `Nc1nc(N2CCCCC2)c2nc(-c3ccccc3)cnc2n1.O.O` [Example 31, 2-amino-4-(piperidin-1-yl)-6-phenylpteridine dihydrate], the “Remaining activity (% of Vmax)” value is recorded as 0 ± 0.05 % of Vmax.
In the case of “2-amino-4-(morpholin-4-yl)-6-phenyl-5,6,7,8-tetra-hydropteridine dihydrochloride hemihydrate [Example 42]”, the “Remaining activity (% of Vmax)” value is 51 ± 3 % of Vmax.
`CN(C)c1nc(N)nc2ncc(-c3ccccc3)nc12` [Example 11, 2-amino-4-(dimethylamino)-6-phenylpteridine]: the “Remaining activity (% of Vmax)” value is recorded as 92 ± 11 % of Vmax.
As to `CCN(CC)c1nc(N)nc2ncc(-c3ccccc3)nc12.O` [Example 15, 2-amino-4-(diethylamino)-6-phenylpteridine hydrate], the “Remaining activity (% of Vmax)” value was 75 ± 3 % of Vmax.
Still for that read-out and setting: the value for “2-amino-4-(4-methylpiperazin-1-yl)-6-phenyl-pteridine hemihydrate [Example 35]” was 83 ± 1 % of Vmax.

The test system of another assay is NO synthase.
Experiment: not given
The conditions noted are these: literature reports on BH4 analogues; cited from earlier work.
As for `C[C@@H](O)[C@@H](O)[C@H]1CNc2nc(N)[nH]c(=O)c2N1` [Example 6S-BH4, 6S-BH4], the “effect on NO production / NO synthase” value is recorded as “able to partly replace the natural cofactor”.
As for `C[C@H](O)[C@H](O)C1=Nc2c(nc(N)[nH]c2=O)NC1` [dihydrobiopterin], the “effect on NO production / NO synthase” value was “able to partly replace the natural cofactor”.
Consider `CC1Nc2nc(N)[nH]c(=O)c2NC1C` (stereo not drawn) [6,7-dimethyl-5,6,7,8-tetrahydropterin], for which the “effect on NO production / NO synthase” value is reported as “no significant effects”.
On to `Nc1nc2nccnc2c(=O)[nH]1` [pterin], for which the “effect on NO production / NO synthase” value is “no significant effects”.
With `Nc1nc(=O)c2[nH]c(=O)cnc2[nH]1` [xanthopterin], the “effect on NO production / NO synthase” value is “no significant effects”.
As for `Nc1nc2c(c(=O)[nH]1)N=C([C@H](O)[C@H](O)CO)CN2` [dihydroneopterin], the “effect on NO production / NO synthase” value is reported as “no significant effects”.
For the compound `Nc1nc2ncc([C@H](O)[C@H](O)CO)nc2c(=O)[nH]1` [neopterin], the “effect on NO production / NO synthase” value was “no significant effects”.
As for `Nc1nc2c(c(=O)[nH]1)NC(CNc1ccc(C(=O)N[C@@H](CCC(=O)O)C(=O)O)cc1)CN2` (stereo partly drawn) [tetrahydrofolic acid], the “effect on NO production / NO synthase” value is reported as “no significant effects”.
On to `Nc1nc2[nH]c(=O)cnc2c(=O)[nH]1` [isoxanthopterin], for which the “effect on NO production / NO synthase” value is “no significant effects”.
Take `CC(O)C(O)C1CNc2c(nc(N)[nH]c2=O)N1` (stereo not drawn) [7-R/S-BH4]: the “effect on NO production / NO synthase” value was “able to partly replace the natural cofactor”.
In the case of `Nc1nc2c(c(=O)[nH]1)N=C(CNc1ccc(C(=O)N[C@@H](CCC(=O)O)C(=O)O)cc1)CN2` [dihydrofolic acid], the “effect on NO production / NO synthase” value was “no significant effects”.
Regarding `Nc1nc2c(c(=O)[nH]1)NC(C(O)C(O)CO)CN2` (stereo not drawn) [tetrahydro-neopterin], the “effect on NO production / NO synthase” value is recorded as “no significant effects”.
Consider `CC1CNc2nc(N)[nH]c(=O)c2C1` (stereo not drawn) [5-deaza-6-methyl-5,6,7,8-tetrahydropterin], for which the “effect on NO production / NO synthase” value is given as “weak inhibition”.
